Results published in patent US10550089B2, “Inhibitors of protease-activated receptor-2” (Heptares Therapeutics Limited, priority 2016, dated 2020).

Tests used:
PAR2 [1] = target: T1, PAR2 (Homo sapiens (Human), UniProt P55085); assay: IP-One HTRF assay for PAR2 antagonist activity (IP1 production); type: cell-based
Method: Protocol for Testing Compounds for PAR2 Antagonist Activity Using an IP-One HTRF Assay
Inositol monophosphate (IP1) production were measured in 1321N1 cells stably expressing human PAR2 using an IP-One HTRF assay kit (Cisbio). […] After 60 min at 37° C. cells were lysed and IP1 concentrations were detected according to the manufacturers protocol (Cisbio). Data were normalized to IP1 concentrations using a IP1 standard curve according to the manufacturers protocol (Cisbio).

PAR2 [2] = target: T1, PAR2; assay: Trypsin activated FLPR Ca2+ mobilization assay for PAR2 antagonist activity; type: cell-based
Method: Trypin Activated FLPR Assay:
Protocol for Testing Compounds for PAR2 Antagonist Activity Using a Ca2+ Mobilization Assay
Calcium mobilization was measured using 1321N1 cells stably expressing human PAR2. Cells were seeded in 384-well plates at 4,000 cells per well in 20 μl DMEM with Glutamax supplemented with 10% FBS and incubated for 18-24 h at 37° C., 5% CO2 and 95% humidity. […] The addition was done using a FLIPR^TETRA (384-well head, Molecular Devices) and the response was read simultaneously to detect any agonist activity.

PAR2 [3] = target: T1, PAR2; assay: FLPR dissociation rate assay (PAR2 mean residence time); type: cell-based; settings: cells washed after compound incubation (60-240 min); peptide agonist SLIGLR-NH2; read-out: FLPR Residence time t1/2
Description: FLPR Dissociation Rate Assay: Protocol for Testing Compounds for PAR2 Mean Residence Time
The peptide agonist SLIGLR-NH2 (ECso) was used in place of trypsin.

PAR1 = PAR1 (Homo sapiens (Human), UniProt P25116); assay: β-arrestin type assay by DiscoverX against PAR1
PAR1, sequence (P25116 22-425): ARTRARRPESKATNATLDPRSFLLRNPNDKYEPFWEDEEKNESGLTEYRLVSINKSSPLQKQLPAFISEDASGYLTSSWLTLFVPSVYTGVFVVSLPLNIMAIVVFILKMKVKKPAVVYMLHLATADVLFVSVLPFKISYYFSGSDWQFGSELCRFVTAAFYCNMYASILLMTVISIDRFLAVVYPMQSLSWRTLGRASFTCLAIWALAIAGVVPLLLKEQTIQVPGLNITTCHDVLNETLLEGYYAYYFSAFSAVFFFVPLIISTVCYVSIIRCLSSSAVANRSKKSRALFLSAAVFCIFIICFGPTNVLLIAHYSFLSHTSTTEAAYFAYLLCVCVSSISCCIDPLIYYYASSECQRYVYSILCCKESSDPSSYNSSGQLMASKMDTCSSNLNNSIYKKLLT

[4] = hPAR2 IPpone IC50 (μM), 1321N1 cells stably expressing human PAR2, agonist SLIGRL-NH2
[5] = hPAR2 FLPR (Trypsin) IC50 (μM), 1321N1 cells stably expressing human PAR2, agonist Trypsin, Vorapaxar present to block PAR1
[6] = 1321N1 cells stably expressing human PAR2, agonist SLIGRL-NH2, read-out: hPAR2 IPpone IC50
[7] = 1321N1 cells stably expressing human PAR2, agonist Trypsin, Vorapaxar present to block PAR1, read-out: hPAR2 FLPR (Trypsin) IC50

T1 sequence (P55085 26-397): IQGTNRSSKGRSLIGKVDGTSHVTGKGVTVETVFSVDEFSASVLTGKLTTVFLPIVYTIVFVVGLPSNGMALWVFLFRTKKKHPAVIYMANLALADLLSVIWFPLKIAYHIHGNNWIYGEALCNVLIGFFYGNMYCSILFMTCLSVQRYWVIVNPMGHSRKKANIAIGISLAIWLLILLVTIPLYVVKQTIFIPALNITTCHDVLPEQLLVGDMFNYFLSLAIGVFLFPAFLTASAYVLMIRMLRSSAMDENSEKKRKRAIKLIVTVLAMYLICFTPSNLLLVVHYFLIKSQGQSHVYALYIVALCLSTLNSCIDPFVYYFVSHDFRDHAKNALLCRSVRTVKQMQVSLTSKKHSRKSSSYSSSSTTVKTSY

## OC(c1ncc[nH]1)c1ccc(F)cc1N1CCCC1 (single isomer, unassigned) [Example 16, (4-Fluoro-2-(pyrrolidin-1-yl)phenyl)(1H-imidazol-2-yl)methanol]
PAR2 [1]; hPAR2 IPpone IC50 (μM)
  IC50: 0.96 µM
PAR2 [2]; hPAR2 FLPR (Trypsin) IC50 (μM)
  IC50: 10.1 µM
PAR2 [3]
  residence time: 161 min

## CCc1ccc2c(F)ccc(C(O)c3ncc[nH]3)n12 (single isomer, unassigned) [Example 35, (3-Ethyl-8-fluoroindolizin-5-yl)(1H-imidazol-2-yl)methanol]
PAR1
  IC50: > 50 µM

## CCc1coc2c(F)ccc([C@H](O)c3ncc[nH]3)c12 (single isomer, unassigned) [Example 42]
PAR2 [1]; [4]
  IC50: 0.33 µM
PAR2 [2]; [5]
  IC50: 3.09 µM
PAR2 [3]
  residence time: 119 min

## CCCc1cc(F)ccc1[C@H](O)c1ncc[nH]1 [Example 3, (S)-(4-Fluoro-2-propylphenyl)(1H-imidazol-2-yl)methanol]
PAR2 [1]; [6]
  IC50: 1.29 µM
PAR2 [2]; [7]
  IC50: 3.92 µM
PAR2 [3]
  residence time: 62 min
PAR1
  IC50: > 50 µM

## CC(C)c1ccc2c(F)ccc(C(O)c3ncc[nH]3)n12 (centres unmarked) [Example 38, (8-Fluoro-3-isopropylindolizin-5-yl)(1H-imidazol-2-yl)methanol]
PAR2 [1]; [4]
  IC50: 1.91 µM
PAR2 [2]; [5]
  IC50: 13.9 µM

## CCc1coc2c(F)ccc(C(O)c3ncc[nH]3)c12 (centres unmarked) [Example 40, (3-Ethyl-7-fluorobenzofuran-4-yl)(1H-imidazol-2-yl)methanol]
PAR2 [1]; [4]
  IC50: 0.75 µM
PAR2 [2]; [5]
  IC50: 4.9 µM

## OC(c1ncc[nH]1)c1ccc(F)c2occ(C3CC3)c12 (centres unmarked) [Example 43, (3-Cyclopropyl-7-fluorobenzofuran-4-yl)(1H-imidazol-2-yl)methanol]
PAR2 [1]; [6]
  IC50: 0.86 µM
PAR2 [2]; [7]
  IC50: 4.58 µM

## Cc1coc2c(F)ccc(C(O)c3ncc[nH]3)c12 (centres unmarked) [Example 52, (7-Fluoro-3-methylbenzofuran-4-yl)(1H-imidazol-2-yl)methanol]
PAR2 [1]; [6]
  IC50: 0.97 µM
PAR2 [2]; [7]
  IC50: 3.27 µM

## CCn1ccc2c(F)ccc(C(O)c3ncc[nH]3)c21 (centres unmarked) [Example 57, (1-Ethyl-4-fluoro-1H-indol-7-yl)(1H-imidazol-2-yl)methanol]
PAR2 [1]; [6]
  IC50: 1.65 µM
PAR2 [2]; [7]
  IC50: 9.03 µM

## OC(c1ncc[nH]1)c1ccc(F)c2ccc(Cl)n12 (centres unmarked) [Example 61, (3-Chloro-8-fluoro-indolizin-5-yl)-(1H-imidazol-2-yl)methanol]
PAR2 [1]; [6]
  IC50: 1.9 µM
PAR2 [2]; [7]
  IC50: 3.1 µM
